Results published in patent US5405845A, “(Pyrrolidinyl)phenyl carbamate derivatives and use” (priority 1994, dated 1995).

What was measured:
acetylcholinesterase [1] = experiment: ex vivo inhibition acetylcholinesterase assay (modified Ellman); format: in vivo, male Wistar rats
acetylcholinesterase [2] = biological target: T1, acetylcholinesterase (Rattus norvegicus, UniProt P37136); experiment: in vitro inhibition of acetylcholinesterase assay (modified Ellman); format: biochemical, Male Wistar rat (corpora striata homogenate)
T1 construct: corpora striata dissected free, weighed and homogenized in 19 volumes; from tissue; host or cells: corpora striata of male Wistar rats, crude homogenate
T1 sequence (P37136 32-614): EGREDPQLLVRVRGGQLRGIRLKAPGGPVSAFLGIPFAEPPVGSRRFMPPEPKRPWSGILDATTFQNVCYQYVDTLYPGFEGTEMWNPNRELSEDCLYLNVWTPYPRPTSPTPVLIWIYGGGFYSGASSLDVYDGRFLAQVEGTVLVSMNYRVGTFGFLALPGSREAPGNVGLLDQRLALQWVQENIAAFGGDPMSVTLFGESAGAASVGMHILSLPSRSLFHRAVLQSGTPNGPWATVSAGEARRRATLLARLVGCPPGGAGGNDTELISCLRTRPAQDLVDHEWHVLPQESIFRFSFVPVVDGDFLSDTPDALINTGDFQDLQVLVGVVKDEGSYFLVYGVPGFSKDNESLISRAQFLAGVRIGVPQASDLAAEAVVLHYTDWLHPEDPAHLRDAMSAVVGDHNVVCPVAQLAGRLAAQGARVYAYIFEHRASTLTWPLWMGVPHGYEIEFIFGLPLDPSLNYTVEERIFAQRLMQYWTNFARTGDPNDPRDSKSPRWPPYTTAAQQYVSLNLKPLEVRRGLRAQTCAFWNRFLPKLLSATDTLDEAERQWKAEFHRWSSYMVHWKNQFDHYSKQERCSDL
Method: In this assay, a modification of a test described by G. L. Ellman, et al., Biochemical Pharmacology, 7, 88 (1961), the following reagents are prepared and employed:
1.0.05M Phosphate Buffer (pH 7.2)
A solution of monobasic sodium phosphate monohydrate (6.85 g) in distilled water (100 ml) is added to a solution of dibasic sodium phosphate heptahydrate (13.4 g) and distilled water (100 ml) until a pH of 7.2 was attained. The solution was diluted 1 to 10 with distilled water.
The 0.05M Phosphate Buffer (pH 7.2) was added to acetylthiocholine (198 mg) to a total volume of 100 ml, i.e., a quantity sufficient (gs) to 100 ml.
3. 5,5-Dithiobisnitrobenzoic acid in Buffer
The 0.05M Phosphate Buffer (pH 7.2) was added to 5,5-dithiobisnitrobenzoic acid to a total volume of 100 ml, i.e., a quantity sufficient (gs) to 100 ml.
4. Stock Solution of Drug
A 2 millimolar stock solution of the test drug is prepared in a quantity sufficient of either acetic acid or dimethyl sulfoxide to volume with 5,5-Dithiobisnitrobenzoic Acid in Buffer. Stock Solution of Drug is serially diluted (1:10) so that the final cuvette concentration is 10^-4 molar.
Male Wistar rates are decapitated, brains rapidly removed, corpora striata dissected free, weighed and homogenized in 19 volumes (approximately 7 mg protein/ml) of 0.05M phosphate Buffer (pH 7.2) using a Potter-Elvehjem homogenizer. A 25 μl aliquot of this suspension is added to 1 ml of the vehicle or various concentrations of the test drug and preincubated for 10 minutes at 37° C. Enzyme activity is measured with a Beckman DU-50 spectrophotometer with the following software and instrument settings:
1. Kinetics Soft-Pac™ Module #598273;
6. Cuvettes--2 ml cuvettes using auto 6-sampler;
7. Blank--1 for each substrate concentration;
8. Interval time--15 seconds (15 or 30 seconds for kinetics);
9. Total time--5 minutes (5 or 10 minutes for kinetics);
14 12. Slope--increasing;
13. Results--yes (gives slope); and
Reagents are added to the blank and sample cuvettes as follows:
1. Blank: 0.8 ml 5,5-Dithiobisnitrobenzoic Acid 0.8 ml Substrate in Buffer
2. Control: 0.8 ml 5,5-Dithiobisnitrobenzoic Acid/Enzyme 0.8 ml Substrate in Buffer
3. Drug: 0.8 ml 5,5-Dithiobisnitrobenzoic Acid/Drug/Enzyme 0.8 ml Substrate in Buffer
Blank values are determined for each run to control for non-enzymatic hydrolysis of substrate and these values are automatically subtracted by the Kindata program available on kinetics soft-pac module. This program also calculates the rate of absorbance change for each cuvette.
Substrate concentration is 10 millimolar diluted 1:2 in assay yielding final concentration of 5 millimolar. 5,5-Dithiobisnitrobenzoic acid concentration is 0.5 millimolar yielding 0.25 millimolar final concentration. [formula]
IC50 values are calculated from log-probit analysis

SMILES | IC50 (acetylcholinesterase [2]) [nM] | other results
CNC(=O)Oc1cccc(C2CCCN2CCc2ccccc2)c1 (stereo not shown) [3-[1-(2-Phenylethyl)-2-pyrrolidinyl]phenyl methylcarbamate] |  | Inhibition of Acetylcholinesterase Activity Percent Inhibition @ 1 hr (acetylcholinesterase [1]; 10 mg/kg per os, forebrain): 25%
CNC(=O)Oc1cccc(C2CCCN2Cc2cccnc2)c1 (stereo not shown) [3-[1-(3-Pyridinylmethyl)-2-pyrrolidinyl]phenyl methylcarbamate] |  | Inhibition of Acetylcholinesterase Activity Percent Inhibition @ 1 hr (acetylcholinesterase [1]; 10 mg/kg per os, forebrain): 51%
O=C(Oc1cccc(C2CCCN2Cc2ccncc2)c1)N1CCc2ccccc2C1 (stereo not shown) [3-[1-(4-Pyridinylmethyl)-2-pyrrolidinyl]phenyl 3,4-dihydro-2(1H)-isoquinoline carbamate hemifumarate] | 568 | 
CNC(=O)Oc1cccc(C2CCCN2Cc2ccncc2)c1 (stereo not shown) [3-[1-(4-Pyridinylmethyl)-2-pyrrolidinyl]phenyl methylcarbamate] | 24.4 | Inhibition of Acetylcholinesterase Activity Percent Inhibition @ 1 hr (acetylcholinesterase [1]; 10 mg/kg per os, striatum): 80%
CNC(=O)Oc1cccc(C2CCC(=O)N2Cc2ccncc2)c1 (stereo not shown) [3-[1-((4-Pyridinyl)methyl)-5-oxo-2-pyrrolidinyl]phenyl methylcarbamate hemifumarate] | 1440 | 
CCN1CCCC1c1cccc(OC(=O)NC)c1 (stereo not shown) [3-[1-Ethyl-2-pyrrolidinyl]phenyl methylcarbamate] |  | Inhibition of Acetylcholinesterase Activity Percent Inhibition @ 1 hr (acetylcholinesterase [1]; 1 mg/kg per os, forebrain): 73%
CNC(=O)Oc1cccc(C2CCCN2CCN2CCOCC2)c1 (stereo not shown) [3-{1-[2-(4-Morpholinyl)ethyl]-2-pyrrolidinyl}phenyl methylcarbamate bis-fumarate] | 529 | 
CNC(=O)Oc1cccc(C2CCC(=O)N2CCN2CCOCC2)c1 (stereo not shown) [3-{1-[2-(4-Morpholinyl)ethyl]-5-oxo-2-pyrrolidinyl}phenyl methylcarbamate] | 18700 | 
CNC(=O)Oc1ccc2c(c1)[C@]1(C)CCN(C)[C@@H]1N2C [physostigmine, reference compound] |  | Inhibition of Acetylcholinesterase Activity Percent Inhibition @ 1 hr (acetylcholinesterase [1]; 0.3 mg/kg intraperitoneal, forebrain): 27%
